Measured values published in patent US20200031920A1, “Combination Therapy for Treating Cancer” (The George Washington University, priority 2017, published 2020).

Experiments:
IL-11 = IL-11 secretion by ELISA in cell culture medium; assay type: cell-based, human; details: SKOV3 cells, various small doses of cisplatin, four days
Experimental: (§1) FIG. 69 are bar graphs ((A)-(C) and (E)-(F)) and illustrations ((D) and (G)) showing that reactive oxygen species (ROS) induces IL-11 expression. (A) is a bar graph showing quantification of ROS production in SKOV3 and SKOV3 CR cells. Data are represented as means±SD from three independent experiments. **p<0.01. Scale bar, 100 μm. (B) is a bar graph showing quantification of ROS production in SKOV3 CR cells after treatment with the ROS inhibitor YCG063 at 20 μM for 24 hr. Data are represented as means±SD from three independent experiments. ***p<0.001. (C) is a bar graph showing IL-11 levels measured by ELISA in the medium of SKOV3 CR cells treated with YCG063 at 20 μM for 24 hr. Data are represented as mean±SD from three independent experiments performed in triplicate. ***p<0.001. (D) is an illustration showing an immunoblot of phosphorylated JAK2 and STAT5 in SKOV3 CR cells treated with YCG063 (20 μM) for 24 hr. (E) is a bar graph showing quantification of ROS production in SKOV3 cells after treated with the ROS inhibitor YCG063 (20 μM), cisplatin (1 μM), or both for 24 hr. Data are represented as means±SD from three independent experiments. **p<0.01, ***p<0.001, n.s. means not significant by one-way ANOVA. (F) is a bar graph showing IL-11 levels measured by ELISA in SKOV3 cells treated with YCG063 (20 μM), cisplatin (1 μM) or both for 24 hr. Data are represented as mean±SD from three independent experiments performed in triplicate. ***p<0.001 by one-way ANOVA. (G) is an illustration showing an immunoblot of phosphorylated JAK2 and STAT5 in SKOV3 CR cells treated with YCG063 (20 μM), cisplatin (1 μM) or both for 24 hr.
Next, the factor from medium that contributes to cisplatin resistance of SKOV3 CR cells was investigated. […] The cell-free culture medium, mouse serum, and patient serum were analyzed for IL-11 levels using a human IL-11 ELISA kit (R&D Systems) according to the manufacturer's instructions. The absorbance was read at 450 nm using a microplate reader (BioTek). The data were normalized to the cell number. […]

[1] = tested on: reactive oxygen species (ROS); assay: ROS production (CellROX Orange reagent); assay type: cell-based; details: SKOV3 cells, YCG063 20 μM, cisplatin 1 μM, 24 hr
Experimental: as §1, with “(D) is an illustration showing an immunoblot of phosphorylated JAK2 and STAT5 in SKOV3 CR cells treated with YCG063 (20 μM) for 24 hr.” left out, “Data are represented as means±SD from three independent experiments. **p<0.01, ***p<0.001, n.s. means not significant by one-way ANOVA.” left out, “Data are represented as mean±SD from three independent experiments performed in triplicate. ***p<0.001 by one-way ANOVA. (G) is an illustration showing an immunoblot of phosphorylated JAK2 and STAT5 in SKOV3 CR cells treated with YCG063 (20 μM), cisplatin (1 μM) or both for 24 hr.” left out
DNA damage induces generation of reactive oxygen species (ROS). […] ROS was detected with a live cell-permeable, fluorophore CellROX Orange reagent (Thermo Fisher Scientific) according to the manufacturer's instructions. […] ROS intensity was analyzed using ImageJ (NIH) software. […]

PEO1 cells = assay: cell proliferation assay, PEO1 cells; assay type: cell-based; details: 5 days
Text: FIG. 63 is a line graph showing the proliferation of PEO1 and PEO4 cells treated with increasing concentrations of cisplatin for 5 days. Data are represented as mean±SD from three independent experiments performed in triplicate. Indicated IC50 values represent the mean of […] independent experiments performed in triplicate.
For ovarian cancer, recurrence more than 12 months after initial chemotherapy was considered as platinum sensitive. PEO4 was derived from the patient 10 months later when they had progressive disease and had become cisplatin resistant.

SKOV3 CR cells [2] = assay: cell viability / proliferation (SRB) assay, cisplatin resistant SKOV3 CR cells; assay type: cell-based; details: combination with carboplatin, CI<1 synergism
SKOV3 CR cells [3] = assay: combinational high throughput screen with cisplatin; assay type: cell-based; details: in combination with DMSO, 1 μM cisplatin or 20 μM cisplatin
Text: A combinational HTS using multiple compound libraries including NPC (NIH Pharmaceutical Collection), MIPE (Mechanism interrogation plate), and LOPAC (The Library of Pharmacologically Active Compounds) was used to identify compounds that can overcome cisplatin resistance of SKOV3 CR cells (FIG. 5). The library of pharmacologically active compounds (LOPAC®) of 1280 compounds (1) was purchased from Sigma. The NCGC Pharmaceutical Collection (NPC) of 2816 compounds and mechanism interrogation plate (MIPE) library of 1920 compounds were previously described. Bromberg, J Clin Invest 109: 1139-1142 (2002) and Buchert et al., Oncogene 35: 939-951 (2016). Compounds from all libraries were obtained as powder and dissolved in dimethyl sulfoxide (DMSO) […]. Combinational HTS was performed as previously described. Szasz et al., Oncotarget 7: 49322-49333 (2016). A total of 6,016 compounds were screened. […] In the second screen, these 112 compounds were selected for a dose-response confirmation screen in combination with DMSO, 1 μM cisplatin or 20 μM cisplatin (FIG. 5).

JAK2 = JAK2 (Homo sapiens, UniProt O60674); assay: in vitro kinase profiling, more than 450 human kinases; assay type: binding; details: data not shown
Experimental: To determine whether LY2784544 is able to sensitize SKOV3 CR cells to cisplatin in vivo, SKOV3 CR cells were implanted subcutaneously into nude mice. When the tumor volume reached 100 mm^3, mice were randomized to receive intraperitoneal injections of vehicle, cisplatin (8 mg/kg on days 1 and 8), LY2784544 (15 mg/kg/d from day 1 to day 14), or the combination of cisplatin and LY2784544. […] To evaluate whether this in vivo tumor suppression was through inhibition of the JAK2 pathway and increased apoptosis, the tumor samples four days after full dosage treatment were collected. […] Quantification of phosphorylated JAK2 and TUNEL staining in tumor tissues treated was performed (FIG. 28). […] To confirm the selectivity of LY2784544, an in vitro kinase profiling was conducted to examine the interaction of LY2784544 with more than 450 human kinases.

JAK2, sequence (O60674 whole entry): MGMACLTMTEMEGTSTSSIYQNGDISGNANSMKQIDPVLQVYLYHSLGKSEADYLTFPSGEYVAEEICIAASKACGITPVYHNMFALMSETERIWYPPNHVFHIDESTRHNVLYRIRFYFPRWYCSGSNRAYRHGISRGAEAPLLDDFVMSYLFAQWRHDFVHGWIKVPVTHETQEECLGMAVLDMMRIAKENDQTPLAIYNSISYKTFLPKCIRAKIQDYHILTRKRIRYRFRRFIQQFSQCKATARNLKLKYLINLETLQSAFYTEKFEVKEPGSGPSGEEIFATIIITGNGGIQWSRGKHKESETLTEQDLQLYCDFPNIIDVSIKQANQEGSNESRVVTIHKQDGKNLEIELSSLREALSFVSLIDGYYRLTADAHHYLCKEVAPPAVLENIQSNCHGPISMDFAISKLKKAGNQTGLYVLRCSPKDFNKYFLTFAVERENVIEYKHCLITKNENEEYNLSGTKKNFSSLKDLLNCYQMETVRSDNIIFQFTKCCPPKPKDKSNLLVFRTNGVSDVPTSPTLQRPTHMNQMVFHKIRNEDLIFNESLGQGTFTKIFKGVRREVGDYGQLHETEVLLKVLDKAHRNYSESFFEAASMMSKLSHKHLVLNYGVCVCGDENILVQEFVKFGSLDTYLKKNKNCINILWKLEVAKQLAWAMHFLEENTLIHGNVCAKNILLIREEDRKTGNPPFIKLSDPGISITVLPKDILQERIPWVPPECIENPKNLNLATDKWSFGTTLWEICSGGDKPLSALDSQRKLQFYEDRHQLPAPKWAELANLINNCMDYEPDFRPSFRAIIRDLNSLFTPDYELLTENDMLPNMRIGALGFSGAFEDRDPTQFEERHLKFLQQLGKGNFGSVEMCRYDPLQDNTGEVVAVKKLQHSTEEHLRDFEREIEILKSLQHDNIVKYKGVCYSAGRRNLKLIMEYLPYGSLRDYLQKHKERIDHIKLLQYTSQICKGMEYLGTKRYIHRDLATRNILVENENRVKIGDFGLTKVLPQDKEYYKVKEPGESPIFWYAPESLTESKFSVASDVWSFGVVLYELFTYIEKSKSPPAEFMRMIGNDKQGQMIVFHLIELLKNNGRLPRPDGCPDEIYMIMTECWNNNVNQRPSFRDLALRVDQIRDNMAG

N.N.[Cl][Pt][Cl] [cisplatin]
IL-11 secretion (IL-11): increased in a cisplatin dose dependent manner
ROS production [1]: activated ROS production
IC50 (PEO1 cells): 320 nM

Cc1cc(Nc2cc(CN3CCOCC3)c3nc(C)c(Cc4ccc(Cl)cc4F)n3n2)n[nH]1 [LY2784544]
medium CI (combination index) (SKOV3 CR cells [2]): 0.75
sensitization to cisplatin in second (dose-response confirmation) screen (SKOV3 CR cells [3]): significantly sensitize SKOV3 CR cells to cisplatin
binding selectivity among kinases (JAK2): stronger binding to JAK2 than JAK1 and TYK2
